Consider one compound from US10106542B2, “Substituted 6,7-dihydropyrazolo[1,5-a]pyrazines as negative allosteric modulators of mGluR2 receptors” (Janssen Pharmaceutica NV, priority 2013, dated 2018).

Like-named read-outs stand apart in the source and are kept apart here.

In one data set the test system is rats. The data set can be described thus: Ro-4-1284 interaction test in rats. To be noted: Rattus norvegicus; p.o.; Ro-4-1284 1.25 mg/kg s.c.; cumulative score over 1 h; read-out: ED50 increase of palpebral opening to scores >25 (reversal of Ro-4-1284-induced palpebral ptose). The format is in vivo, rat. On the procedure:
(§1) 5) Ro-4-1284 Interaction Test in Rats The relative ability of Co. No. 1 to increase palpebral opening was also studied in rats challenged with another monoamines depleting agent, viz. Ro-4-1284 (1.25 mg/kg, s.c.). Effects on body temperature immediately before the injection of Ro-4-1284 were also measured. The cumulative palpebral opening score (every 5 min over a 1-h period) was used for evaluation. The median cumulative palpebral opening in solvent-pretreated control animals (n=70) was 18; a scores >25 occurred in only 1.4% of these control animals and was adopted as all-or-none criterion for drug-induced reversal of the Ro-4-1284-induced palpebral ptose. Co.

Data set [1] can be described thus: Ro-4-1284 interaction test in rats. The class given is in vivo, rat. To be noted: rat, in vivo, po; read-out: ED50 effect on body temperature immediately before the injection of Ro-4-1284. Here is the method:
as §1

The next data set concerns the target T1, human mGlu2 receptor (Homo sapiens, UniProt Q14416).
T1 construct: expressed in transfected cells; host or cells: CHO cells (membrane preparation)
The experiment in a line: [35S]GTPγS binding assay (mGluR2 negative allosteric modulation). The format is biochemical. The essentials:
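Membranes from butyrate-stimulated CHO cells expressing human mGlu2; 7 μg protein in HEPES pH 7.4, 100 mM NaCl, 3 mM MgCl2, 10 μM GDP, 10 μg/ml saponin. Compound tested against EC80-equivalent glutamate; 0.1 nM [35S]GTPγS, 30 min, 30 °C; filtration, scintillation counting. Data as % of control glutamate response.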

For another data set, the system named is Wiga rats. The data set can be described thus: Reserpine interaction test in rats. The class given is in vivo, rat. To be noted: Rattus norvegicus, Wiga rats. Here is the method: 4) Reserpine Interaction Test in Rats
It was investigated to what extent the mydriatic action of test compounds was sufficient to counteract the miosis induced by the monoamines-depleting agent reserpine (10 mg/kg; SC) in Wiga rats.
The effects are illustrated in FIG. 3. […] The reference mGlu2 NAMs RO-4995819 (40 mg/kg, p.o.), RO-4491533 (40 mg/kg, p.o.; 10 mg/kg, s.c.) and [CAS 579473-69-1]

The test system of data set [2] is rat hippocampal brain slices. The data set can be described thus: Reversal of mGluR2-agonism (LY-354740-depressed fEPSP) in hippocampal brain slices. The class given is cell-based. The text has this: 7) Reversal of mGluR2-Agonism in Hippocampal Brain Slices Introduction
Electrophysiology recordings of field excitatory postsynaptic potentials (fEPSPs) in acute hippocampal brain slices represent a model for testing synaptic transmission and plasticity. The effect of Co. No. 1 on synaptic transmission and plasticity in dentate gyms synapses was investigated using this model.
Recordings of fEPSPs were made from hippocampal brain slices using a multi-electrode array (MEA) biochip, and 3-dimensional-(3D) tip electrodes, according to a standard protocol. These recordings were used to monitor glutamate-mediated synaptic transmission (FIG. 4).

T1 sequence (Q14416 19-872): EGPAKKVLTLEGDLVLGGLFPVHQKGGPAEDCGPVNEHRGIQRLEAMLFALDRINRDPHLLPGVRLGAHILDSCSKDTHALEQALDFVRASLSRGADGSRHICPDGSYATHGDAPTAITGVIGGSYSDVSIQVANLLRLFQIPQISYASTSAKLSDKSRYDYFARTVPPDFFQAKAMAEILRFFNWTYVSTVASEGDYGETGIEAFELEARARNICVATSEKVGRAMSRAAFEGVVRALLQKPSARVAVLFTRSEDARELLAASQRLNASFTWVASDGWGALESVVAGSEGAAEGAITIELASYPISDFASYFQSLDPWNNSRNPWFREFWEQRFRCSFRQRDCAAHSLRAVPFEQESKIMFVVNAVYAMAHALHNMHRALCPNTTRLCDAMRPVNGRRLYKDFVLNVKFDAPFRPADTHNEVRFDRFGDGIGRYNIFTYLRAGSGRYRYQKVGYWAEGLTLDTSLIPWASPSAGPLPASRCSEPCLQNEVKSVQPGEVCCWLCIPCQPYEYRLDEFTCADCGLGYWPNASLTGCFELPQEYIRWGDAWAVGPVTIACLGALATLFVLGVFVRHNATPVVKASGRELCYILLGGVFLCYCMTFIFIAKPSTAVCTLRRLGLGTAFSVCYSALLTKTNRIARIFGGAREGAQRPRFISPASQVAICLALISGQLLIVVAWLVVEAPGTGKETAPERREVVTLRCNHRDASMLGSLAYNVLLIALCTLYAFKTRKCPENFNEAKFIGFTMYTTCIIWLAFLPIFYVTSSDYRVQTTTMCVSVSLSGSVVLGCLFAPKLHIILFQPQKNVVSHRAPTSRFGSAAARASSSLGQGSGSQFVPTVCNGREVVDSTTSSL

Regarding `Cc1cc(-c2cnn3c2C(=O)N(c2ccc(C(F)(F)F)cc2)C[C@@H]3C)ccn1` [compound 1, (7S)-7-Methyl-3-(2-methylpyridin-4-yl)-5-[4-(trifluoromethyl)phenyl]-6,7-dihydropyrazolo[1,5-a]pyrazin-4(5H)-one], the ED50 in the data set with rats was 0.51 mg/kg; in data set [1], greater than 10 mg/kg; in the data set with Wiga rats (p.o., -1 h, reserpine 10 mg/kg SC, read-out: ED50 reversal of reserpine-induced miosis), 9.4 mg/kg; in the data set on Wiga rats (p.o., -1 h, reserpine 10 mg/kg SC, read-out: ED50 reversal of reserpine-induced ptosis), 0.78 mg/kg; in the data set on Wiga rats (p.o., -1 h, reserpine 10 mg/kg SC, read-out: ED50 reversal of reserpine-induced sedation), 7.1 mg/kg; in the data set with Wiga rats (p.o., -4 h, reserpine 10 mg/kg SC, read-out: ED50 reversal of reserpine-induced miosis) it was 9.4 mg/kg. Moreover, the ED50 was found to be 0.78 mg/kg in the data set on Wiga rats (p.o., -4 h, reserpine 10 mg/kg SC, read-out: ED50 reversal of reserpine-induced ptosis); 14 mg/kg in the data set with Wiga rats (p.o., -4 h, reserpine 10 mg/kg SC, read-out: ED50 reversal of reserpine-induced sedation); 1.55 mg/kg with Wiga rats (po, -1 h, read-out: ED50 mydriasis before the reserpine challenge); 0.89 mg/kg with Wiga rats (po, -4 h, read-out: ED50 mydriasis before the reserpine challenge); 0.67 mg/kg in the data set on Wiga rats (po, Time 60, reserpine 10 mg/kg SC, read-out: ED50, reversal of reserpine-induced ptosis); 0.89 mg/kg in the data set with Wiga rats (po, Time 240, reserpine 10 mg/kg SC, read-out: ED50, reversal of reserpine-induced ptosis). Further, the ED50 in the data set on Wiga rats (sc, Time 60, reserpine 10 mg/kg SC, read-out: ED50, reversal of reserpine-induced ptosis) amounted to 1.01 mg/kg; with Wiga rats (sc, read-out: ED50 mydriasis before the reserpine challenge) it was 1.78 mg/kg; in the data set with Wiga rats (sc, reserpine 10 mg/kg SC, read-out: ED50 reversal of reserpine-induced miosis) it was 4.1 mg/kg; in the data set with Wiga rats (sc, reserpine 10 mg/kg SC, read-out: ED50 reversal of reserpine-induced ptosis), 1.03 mg/kg; in the data set on Wiga rats (sc, reserpine 10 mg/kg SC, read-out: ED50 reversal of reserpine-induced sedation) it was 9.4 mg/kg. At human mGlu2 receptor (membranes from CHO cells transfected with human mGlu2 receptor, glutamate 60 μM, pIC50 = −log IC50 (M)), the “GTPγS - hmGluR2 anGT pIC50” value was found to be 8.05. Moreover, on human mGlu2 receptor (relative maximal effect: maximal % inhibition relative to the control glutamate response, read-out: GTPγS - hmGluR2 anGT Emax), the Emax is 106%. In addition, the “paired-pulse ratio (PPR)” value in data set [2] (10 μM Co. No. 1 after LY-354740 1 μM) is given as “decrease of the PPR”. The “recovery of the LY-354740-induced depression of fEPSP” value in data set [2] (10 μM, fifteen min after application, LY-354740 1 μM, n=17 slices from 4 rats) is on record as 80%.

What is called ED50 is the midpoint of the dose-response relation. For orientation: Emax means the size of the effect at its maximum, as opposed to the concentration needed.
